# Reference: patent publication US20130196949A1, “Hydroxyalkyl starch in combination with cytostatica for the treatment of cancers by reduction of tumor growth rates” (Fresenius Kabi Deutschland GmbH, priority 2012, published 2013)
# Where two headings read alike, the source gives them in different places.
# What was measured:
# [1] = system: HNXF 1842 (Head and Neck Cancer, squamous cell carcinoma) xenograft; assay: Tumor growth of HNXF 1842 human tumor xenograft in NMRI nu/nu mice; format: in vivo
# Protocol: (§1) Animals and tumor implants were monitored daily until the maximum number of implants show clear signs of beginning solid tumor growth. […] The day of randomization was designated as day 0 of an experiment and was also the first day of dosing.
# (§2) The tumor volume was determined by a two-dimensional measurement with callipers on the day of randomization (Day 0) and then once to twice weekly. Tumor volumes were calculated according to the following equation:
# Tumor Vol[mm^3]=a[mm]×b^2[mm^2]×0.5
# (§3) where “a” is the largest diameter and “b” is the perpendicular diameter of the tumor representing an idealized ellipsoid.
# (§4) The relative volume of an individual tumor on day X (RTVx) was calculated by dividing the absolute volume [mm^3] of the respective tumor on day X (Tx) by the absolute volume of the same tumor on the day of randomization, i.e. on day 0 (T0), multiplied by 100, as shown by the following equation:
# (§5) Group median of RTVs were calculated, considering only the tumors of animals that were alive on the day in question. Group median RTVs are used for drawing tumor growth curves.
# Mice were either treated with Paclitaxel at a dose of 10 mg/kg i.v., with a combination of Voluven® 10% (20 ml/kg i.v.) and Paclitaxel (10 mg/kg i.v.), or with saline (20 ml/kg) i.v. at days 0, 7, 14, and 21. Tumor growth and body weight were determined over the course of the experiment. […]
# [2] = Relative body weight of mice bearing HNXF 1842 tumors; format: in vivo; conditions: HNXF 1842 study, FIG. 4
# Protocol: (§6) Starting on day 0, animals were weighed once to twice a week. Relative body weights (RBW) of individual animals are calculated by dividing the individual absolute body weight on day X (BWx) by the individual body weight on the day of randomization, i.e. day 0 (BW0), multiplied by 100, as shown by the following equation:
# (§7) Group median of relative body weights were determined, considering only the weights of animals that were alive on the day in question.
# Mice were either treated with Paclitaxel at a dose of 10 mg/kg i.v., with a combination of Voluven® 10% (20 ml/kg i.v.) and Paclitaxel (10 mg/kg i.v.), or with saline (20 ml/kg) i.v. at days 0, 7, 14, and 21. Tumor growth and body weight were determined over the course of the experiment.
# [3] = LXFE 397 study, FIG. 2
# Protocol: as §6, §7
# Tumor growth and body weight were determined over the course of the experiment.
# [4] = system: LXFE 397/26N17 (Non-Small Cell Lung Cancer, squamous cell carcinoma) xenograft
# Protocol: as §1, §2
# Tumor Vol[mm^3]=a[mm]×b^2[mm^2]×0.5
# as §3, §4, §5
# Mice were either treated with Capecitabine at a dose of 100 mg/kg per orally (p.o.), with the plasma expander Voluven® 10% at a dose of 20 ml/kg bodyweight intravenously (i.v.), or with saline (20 ml/kg) i.v. at days 0, 4, 7, 11, 14, and 18. Tumor growth and body weight were determined over the course of the experiment. […]
# [5] = system: RXF 1220 (renal cancer, hypernephroma) xenograft; conditions: day 27; Sunitinib 40 mg/kg p.o., Voluven 10% 20 ml/kg i.v. 1 hour prior; days 0-11
# Protocol: as §1, §2
# Tumor Vol[mm^3]=a[mm]×b^2[mm^2]×0.5
# as §3, §4, §5
# Mice were either treated with Sunitinib at a dose of 40 mg/kg p.o., with a combination of Voluven® 10% (20 ml/kg i.v.) and Sunitinib (40 mg/kg p.o.), or with saline (20 ml/kg) i.v. at days 0-11. Tumor growth and body weight were determined over the course of the experiment. […]
# [6] = Relative body weight of mice bearing RXF 1220 tumors; format: in vivo; conditions: RXF 1220 study, FIG. 6
# Protocol: Starting on day 0, animals were weighed once to twice a week. Relative body weights (RBW) of individual animals are calculated by dividing the individual absolute body weight on day X (BWx) by the individual body weight on the day of randomization, i.e. day 0 (BW0), multiplied by 100, as shown by the following equation: Group median of relative body weights were determined, considering only the weights of animals that were alive on the day in question. Mice were either treated with Sunitinib at a dose of 40 mg/kg p.o., with a combination of Voluven® 10% (20 ml/kg i.v.) and Sunitinib (40 mg/kg p.o.), or with saline (20 ml/kg) i.v. at days 0-11. Tumor growth and body weight were determined over the course of the experiment.
smiles,measurement,setting,value
CC(=O)O[C@H]1C(=O)[C@@]2(C)[C@H]([C@H](OC(=O)c3ccccc3)[C@]3(O)C[C@H](OC(=O)[C@H](O)[C@@H](NC(=O)c4ccccc4)c4ccccc4)C(C)=C1C3(C)C)[C@]1(OC(C)=O)CO[C@@H]1C[C@@H]2O [Paclitaxel],median relative tumor volume increase compared to day 0,"[1]; day 18, Paclitaxel 10 mg/kg i.v., Voluven 10% 20 ml/kg i.v. 1 hour prior, days 0, 7, 14, 21",approx. 7.1 fold
same,inhibitory effect on tumor growth (in words),"[1]; over 18 days, combination compared with reference drug alone",inhibited the tumor growth
same,relative median body weight over time (in words),[2],lowest increase
CCCCCOC(=O)Nc1nc(=O)n([C@@H]2O[C@H](C)[C@@H](O)[C@H]2O)cc1F [Capecitabine],relative median body weight over time (in words),[3],did not increase the body weight as steadily as the other two
same,median relative tumor volume increase compared to day 0,"[4]; day 14, Capecitabine 100 mg/kg p.o., Voluven 10% 20 ml/kg i.v. 1 hour prior, days 0, 4, 7, 11, 14, 18",approx. 15.2 fold
same,inhibitory effect on tumor growth (in words),"[4]; over 14 days, combination compared with reference drug alone",moderately inhibited the tumor growth
CCN(CC)CCNC(=O)c1c(C)[nH]c(/C=C2\C(=O)Nc3ccc(F)cc32)c1C [Sunitinib],median relative tumor volume increase compared to day 0,[5],approx. 8.5 fold
same,relative median body weight over time (in words),[6],increased slightly over time
